We go through 25 compounds from ChEMBL document CHEMBL1806354 (J Med Chem, 2011).

Structures are written as SMILES.

Holding throughout (assay type): cell-based
In test [1] the target is T1, D(1A) dopamine receptor (Homo sapiens, UniProt P21728). Nature of the test: Displacement of [3H]SCH23390 from dopamine D1 receptor expressed in HEK293 cells at 10 uM after 50 mins by beta liquid scintillation counter. A general note: In a radioligand displacement assay an active substance lowers the binding of a labelled ligand.
Test [2] concerns the target T2, D(2) dopamine receptor (Homo sapiens, UniProt P14416). Nature of the test: Displacement of [3H]spiperone from dopamine D2 receptor expressed in HEK293 cells after 50 mins by beta liquid scintillation counter.
Test [3] addresses T3, 5-hydroxytryptamine receptor 1A (Homo sapiens, UniProt P08908).
T3 sequence (P08908 whole entry): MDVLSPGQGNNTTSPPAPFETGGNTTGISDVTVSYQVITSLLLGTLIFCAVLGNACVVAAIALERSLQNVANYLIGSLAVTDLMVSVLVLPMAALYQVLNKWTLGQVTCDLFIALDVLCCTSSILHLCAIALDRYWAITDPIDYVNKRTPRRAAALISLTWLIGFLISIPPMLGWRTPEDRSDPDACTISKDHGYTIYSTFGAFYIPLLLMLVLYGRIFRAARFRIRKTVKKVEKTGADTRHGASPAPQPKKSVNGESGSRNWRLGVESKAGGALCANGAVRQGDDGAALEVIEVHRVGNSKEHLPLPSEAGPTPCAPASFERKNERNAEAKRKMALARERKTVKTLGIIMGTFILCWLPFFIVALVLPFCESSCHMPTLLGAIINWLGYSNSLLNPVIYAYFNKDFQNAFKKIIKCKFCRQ
Nature of the test: Displacement of [3H]-8-OH-DPAT from 5-HT1A receptor expressed in CHO cells after 50 mins by beta liquid scintillation counter.

Test [4] deals with T4, 5-hydroxytryptamine receptor 2A (Homo sapiens, UniProt P28223). Description: Displacement of [3H]ketanserin from 5-HT2A receptor expressed in CHO cells at 10 uM after 50 mins by beta liquid scintillation counter.
Test [5] concerns the target T2, D(2) dopamine receptor. Description: Displacement of [3H]spiperone from dopamine D2 receptor expressed in HEK293 cells at 10 uM after 50 mins by beta liquid scintillation counter.
For test [6], the target named is T1, D(1A) dopamine receptor. Description: Displacement of [3H]SCH23390 from dopamine D1 receptor expressed in HEK293 cells after 50 mins by beta liquid scintillation counter.
Test [7] deals with T4, 5-hydroxytryptamine receptor 2A. Description: Displacement of [3H]ketanserin from 5-HT2A receptor expressed in CHO cells after 50 mins by beta liquid scintillation counter.

T1 sequence (P21728 whole entry): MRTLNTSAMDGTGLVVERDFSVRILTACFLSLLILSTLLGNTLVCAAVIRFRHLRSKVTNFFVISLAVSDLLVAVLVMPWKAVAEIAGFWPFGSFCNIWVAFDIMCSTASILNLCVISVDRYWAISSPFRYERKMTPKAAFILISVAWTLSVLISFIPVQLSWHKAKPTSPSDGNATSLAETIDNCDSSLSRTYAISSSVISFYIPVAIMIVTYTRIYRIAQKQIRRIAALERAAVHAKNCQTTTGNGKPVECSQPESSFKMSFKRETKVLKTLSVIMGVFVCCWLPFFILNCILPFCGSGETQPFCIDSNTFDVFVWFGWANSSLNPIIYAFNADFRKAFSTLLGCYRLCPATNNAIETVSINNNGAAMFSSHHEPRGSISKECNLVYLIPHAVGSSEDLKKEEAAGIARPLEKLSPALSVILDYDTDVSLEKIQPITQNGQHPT
T4 sequence (P28223 whole entry): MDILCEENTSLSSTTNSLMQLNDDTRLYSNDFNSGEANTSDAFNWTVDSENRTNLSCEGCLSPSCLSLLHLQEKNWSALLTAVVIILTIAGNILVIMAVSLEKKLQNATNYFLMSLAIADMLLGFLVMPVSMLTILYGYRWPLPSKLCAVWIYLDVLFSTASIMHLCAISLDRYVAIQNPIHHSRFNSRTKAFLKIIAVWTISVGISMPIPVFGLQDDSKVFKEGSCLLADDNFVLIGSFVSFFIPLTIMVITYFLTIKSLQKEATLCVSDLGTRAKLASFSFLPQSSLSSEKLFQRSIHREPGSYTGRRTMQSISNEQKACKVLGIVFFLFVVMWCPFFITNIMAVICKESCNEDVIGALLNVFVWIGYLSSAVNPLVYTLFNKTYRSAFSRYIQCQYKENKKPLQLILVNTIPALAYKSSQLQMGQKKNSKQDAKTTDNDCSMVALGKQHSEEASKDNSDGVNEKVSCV
T2 sequence (P14416 whole entry): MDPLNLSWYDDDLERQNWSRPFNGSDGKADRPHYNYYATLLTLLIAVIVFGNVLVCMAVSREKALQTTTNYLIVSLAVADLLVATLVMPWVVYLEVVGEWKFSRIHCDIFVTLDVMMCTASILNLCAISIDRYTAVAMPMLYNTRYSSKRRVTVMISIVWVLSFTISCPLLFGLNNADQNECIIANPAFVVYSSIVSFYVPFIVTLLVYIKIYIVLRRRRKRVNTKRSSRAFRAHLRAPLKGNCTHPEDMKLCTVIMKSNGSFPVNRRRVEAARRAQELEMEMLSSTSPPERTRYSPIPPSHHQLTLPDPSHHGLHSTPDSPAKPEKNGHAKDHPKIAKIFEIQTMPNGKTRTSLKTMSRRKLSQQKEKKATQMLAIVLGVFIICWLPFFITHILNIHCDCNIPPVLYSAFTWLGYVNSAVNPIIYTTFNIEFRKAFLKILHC

By inhibition is commonly meant the relative decrease from the control value, in per cent. Lower therefore signals little suppression. The term Ki denotes a dissociation constant, usually derived from enzyme kinetics or from competition with a known ligand. Turning to `CCCN1CCc2cccc3c2[C@H]1Cc1cccc(N)c1-3`, the inhibition was determined as 57.1% at D(1A) dopamine receptor [1] and 49.4% in test [4]. The results for the Ki (at D(2) dopamine receptor [2]; in test [3]) were 352 nM and 276 nM, respectively.
In the case of `CCCN1CCc2cccc3c2C1Cc1cccc(OC(=O)Nc2cccc4ccccc24)c1-3` (stereo not given), the inhibition at D(1A) dopamine receptor [1] is 48%; in test [4], 21.7%. Moreover, the Ki turned out to be 2000 nM at D(2) dopamine receptor [2] and 124 nM in test [3].
With `CCCN1CCc2cccc3c2[C@H]1Cc1cccc(O)c1-3`, the inhibition at D(1A) dopamine receptor [1] was determined as 63.2%; in test [4], 63%.
As to `CCCC(=O)Nc1cccc2c1-c1cccc3c1[C@@H](C2)N(CCC)CC3`, the values for the inhibition (on D(1A) dopamine receptor [1]; at D(2) dopamine receptor [5]; in test [4]) were 16.1%, 13.5% and 16.6%, respectively. The affinity in test [3], expressed as Ki, was 380 nM.
`CCCN1CCc2cccc3c2C1Cc1cccc(OC(=O)CCCCC2CCSS2)c1-3` (racemic): the inhibition was determined as 62.7% on D(1A) dopamine receptor [1], 55.2% at D(2) dopamine receptor [5] and 14.7% in test [4]. For the same compound, in test [3], the Ki was determined as 137 nM.
For `CCCNC(=O)Oc1cccc2c1-c1cccc3c1C(C2)N(CCC)CC3` (racemic) the same measures were 26.2%, 52.7%, 30.1% and 258 nM.
Take `CCCC(=O)Oc1cccc2c1-c1cccc3c1[C@@H](C2)N(CCC)CC3`: the inhibition at D(1A) dopamine receptor [1] was 63.2%; in test [4] it was 68%. Also, the Ki amounted to 55.5 nM on D(2) dopamine receptor [2] and 11.9 nM in test [3].
With `CCCN1CCc2cccc3c2C1Cc1cccc(CNC(=S)CCCCC2CCSS2)c1-3` (racemic), the values for the inhibition at D(1A) dopamine receptor [1] and on D(2) dopamine receptor [5] were 11.4% and 3.1%, respectively.
Taken in the same sequence, the figures for `CCCN1CCc2cccc3c2C1Cc1cccc(-c2noc(CCCCC4CCSS4)n2)c1-3` (racemic) were 57% and 19.5%.
For the compound `CCCN1CCc2cccc3c2[C@H]1Cc1cccc(OC(=O)NCC)c1-3`, the inhibition at D(1A) dopamine receptor [1] is 54.6%; at D(2) dopamine receptor [5] it was 44.3%; in test [4], 14.5%. Further, the Ki in test [3] came out at 94 nM.
Consider `CCCNC(=O)Oc1cccc2c1-c1cccc3c1[C@@H](C2)N(CCC)CC3`, for which the inhibition at D(1A) dopamine receptor [1] worked out at 56.3%; on D(2) dopamine receptor [5], 50.9%; in test [4], 16%. The compound also had a Ki in test [3] of 87 nM.
Regarding `CCCN1CCc2cccc3c2C1Cc1cccc(CNC(=O)NCC)c1-3` (racemic), the inhibition is 35.4% on D(1A) dopamine receptor [1] and 15.7% on D(2) dopamine receptor [5].
Take `CCCCNC(=O)Oc1cccc2c1-c1cccc3c1C(C2)N(CCC)CC3` (racemic): the values for the inhibition (at D(1A) dopamine receptor [1]; at D(2) dopamine receptor [5]; in test [4]) were 36.5%, 53.2% and 37.4%, respectively. In addition, the inhibitory constant (Ki) in test [3] is 385 nM.
Take `CCCN1CCc2cccc3c2C1Cc1cccc(OC(=O)NCc2ccccc2)c1-3` (racemic): the Ki on D(1A) dopamine receptor [6] was 4200 nM; at D(2) dopamine receptor [2] it was 4300 nM; in test [3] it was 259 nM; in test [7] it was 2000 nM.
Regarding `CCCN1CCc2cccc3c2[C@H]1Cc1cccc(OC(=O)NCc2ccccc2)c1-3`, the Ki on D(1A) dopamine receptor [6] was 2400 nM; on D(2) dopamine receptor [2], 2200 nM; in test [3], 90 nM. The compound also showed an inhibition in test [4] of 76.6%.
`CCCN1CCc2cccc3c2[C@H]1Cc1cccc(OC(=O)CCCC[C@H]2CCSS2)c1-3` displayed an inhibition at D(1A) dopamine receptor [1] of 64.8%. In addition, the Ki is 342 nM at D(2) dopamine receptor [2] and 35 nM in test [3].
In the case of `CCCN1CCc2cccc3c2C1Cc1cccc(CNC(=O)CCCCC2CCSS2)c1-3` (racemic), the inhibition on D(1A) dopamine receptor [1] is 32.4%; at D(2) dopamine receptor [5], 9.6%.
The compound `CCCN1CCc2cccc3c2[C@H]1Cc1cccc(OC(=O)CCCC[C@@H]2CCSS2)c1-3` gave an inhibition on D(1A) dopamine receptor [1] of 69.6%. For the same compound, the results for the Ki (on D(2) dopamine receptor [2]; in test [3]) were 296 nM and 45 nM, respectively.
With `CCCN1CCc2cccc3c2[C@H]1Cc1cccc(OC(=O)NC(C)(C)C)c1-3`, the values for the inhibition (on D(1A) dopamine receptor [1]; in test [4]) were 70.2% and 29.2%, respectively. The Ki is 871 nM at D(2) dopamine receptor [2] and 96 nM in test [3].
For `CCCN1CCc2cccc3c2C1Cc1cccc(OC(=O)NCC)c1-3` (racemic), the inhibition worked out at 46.1% at D(1A) dopamine receptor [1], 56.7% on D(2) dopamine receptor [5] and 19.8% in test [4]. This compound also showed a Ki in test [3] of 218 nM.
`CCCN1CCc2cccc3c2C1Cc1cccc(OC(=O)CSc2ccccc2)c1-3` (racemic) yielded an inhibition on D(1A) dopamine receptor [1] of 67.1%. The Ki on D(2) dopamine receptor [2] is 851 nM.
As to `CCCN1CCc2cccc3c2C1Cc1cccc(OC(=O)NC(C)(C)C)c1-3` (racemic), the inhibition on D(1A) dopamine receptor [1] was 44.2%; in test [4] it was 20%. For the same compound, the figures for the Ki (at D(2) dopamine receptor [2]; in test [3]) were 2800 nM and 217 nM, respectively.
In the case of `CCCN1CCc2cccc3c2[C@H]1Cc1cccc(NC(=O)CCCCC2CCSS2)c1-3` (stereo not given in full), the figures for the inhibition (at D(1A) dopamine receptor [1]; at D(2) dopamine receptor [5]; in test [4]) were 27.2%, 33.1% and 36.9%, respectively. The compound also returned a Ki in test [3] of 249 nM.
With `CCCN1CCc2cccc3c2C1Cc1cccc(O)c1-3` (racemic), the inhibition at D(1A) dopamine receptor [1] stood at 55.9%; in test [4], 14.1%. The compound also had an inhibitory constant (Ki) in test [3] of 66 nM.
Turning to `CCCCNC(=O)Oc1cccc2c1-c1cccc3c1[C@@H](C2)N(CCC)CC3`, the figures for the inhibition (on D(1A) dopamine receptor [1]; at D(2) dopamine receptor [5]; in test [4]) were 53.6%, 40.9% and 34.9%, respectively. Moreover, the Ki in test [3] came out at 89 nM.
